These compounds were tested against Receptor-type tyrosine-protein phosphatase C (Homo sapiens) (UniProt P08575) (assay: In vitro inhibitory activity against recombinant CD45 protein tyrosine phosphatase).
Sequence of Receptor-type tyrosine-protein phosphatase C (Homo sapiens) (P08575 whole entry, looked up): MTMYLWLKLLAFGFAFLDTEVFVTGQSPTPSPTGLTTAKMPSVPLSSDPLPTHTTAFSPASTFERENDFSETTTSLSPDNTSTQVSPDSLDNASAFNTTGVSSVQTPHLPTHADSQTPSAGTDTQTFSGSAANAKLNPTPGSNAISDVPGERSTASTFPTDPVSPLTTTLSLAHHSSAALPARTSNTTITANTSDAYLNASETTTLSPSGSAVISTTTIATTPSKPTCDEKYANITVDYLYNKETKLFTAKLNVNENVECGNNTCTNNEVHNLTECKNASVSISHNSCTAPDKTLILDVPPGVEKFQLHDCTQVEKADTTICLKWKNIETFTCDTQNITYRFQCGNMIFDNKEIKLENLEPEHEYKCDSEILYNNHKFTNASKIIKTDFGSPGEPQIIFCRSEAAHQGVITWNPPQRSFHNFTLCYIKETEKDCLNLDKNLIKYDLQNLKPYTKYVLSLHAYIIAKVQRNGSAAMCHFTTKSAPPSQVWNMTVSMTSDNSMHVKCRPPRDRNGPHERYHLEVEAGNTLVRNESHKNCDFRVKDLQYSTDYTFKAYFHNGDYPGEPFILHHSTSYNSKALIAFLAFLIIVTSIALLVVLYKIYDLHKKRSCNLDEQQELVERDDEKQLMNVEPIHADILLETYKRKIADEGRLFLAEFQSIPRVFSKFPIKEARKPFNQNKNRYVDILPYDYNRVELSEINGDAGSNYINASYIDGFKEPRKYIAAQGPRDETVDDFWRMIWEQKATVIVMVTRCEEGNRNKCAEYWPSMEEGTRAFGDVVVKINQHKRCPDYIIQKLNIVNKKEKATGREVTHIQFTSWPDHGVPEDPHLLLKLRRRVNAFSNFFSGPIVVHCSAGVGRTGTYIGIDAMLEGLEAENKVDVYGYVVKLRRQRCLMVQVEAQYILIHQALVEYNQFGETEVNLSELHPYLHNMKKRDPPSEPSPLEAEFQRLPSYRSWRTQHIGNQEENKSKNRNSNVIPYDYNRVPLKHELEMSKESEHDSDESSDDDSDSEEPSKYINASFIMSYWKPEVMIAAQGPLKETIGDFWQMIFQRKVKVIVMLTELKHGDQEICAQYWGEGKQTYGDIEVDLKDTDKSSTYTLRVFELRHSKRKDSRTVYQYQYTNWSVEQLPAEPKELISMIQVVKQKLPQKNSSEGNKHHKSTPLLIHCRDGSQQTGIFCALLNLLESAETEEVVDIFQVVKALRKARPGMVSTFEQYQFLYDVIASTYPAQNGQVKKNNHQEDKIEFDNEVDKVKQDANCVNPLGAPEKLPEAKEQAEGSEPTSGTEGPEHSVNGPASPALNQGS
Work on `COc1cc2c(cc1OC)-c1c(OC)c(OC)cc3c1[C@H](C2)N(C)CC3` yielded an IC50 of 88 µM. `O=C1c2ccccc2-c2c3c(cc4ccnc1c24)OCO3` [Liriodenine] gave an IC50 of 182 µM. In the case of `CN1CCc2cc3c(c4c2C1Cc1ccccc1-4)OCO3` (stereo not given) [7-Methyl-6,7,7a,8-tetrahydro-5H-benzo[g][1,3]dioxolo[4',5':4,5]benzo[1,2,3-de]quinoline], the IC50 is reported as 107 µM. Compound `c1ccc2c(c1)C[C@H]1NCCc3cc4c(c-2c31)OCO4` [(-)-anonaine] has an IC50 of 17 µM. `COc1cc2c3c(c1OC)-c1ccccc1C[C@@H]3NCC2` [(S)-1,2-Dimethoxy-5,6,6a,7-tetrahydro-4H-dibenzo[de,g]quinoline] showed an IC50 of 5.3 µM.
